Source: patent US6355616B1, “Derivative compounds derived from or based on bactericidal/permeability-increasing protein” (priority 1999, dated 2002)

Tests used:
Candida albicans, SLU-1 = assay: 28-day comparative survival efficacy study in mice systemically infected with Candida albicans; type: in vivo, male DBA/2 mice; settings: mice infected iv with C. albicans SLU-1; two doses less than 5 mg/kg; initial experiments (p>0.5)
Procedure: Derivatized peptide-based constructs are tested for activity upon oral administration (oral activity) in a 28-day comparative survival efficacy study in mice systemically infected with Candida albicans. Specifically, male DBA/2 mice (Charles River Laboratories) six weeks of age are dosed with 7.9×10^4 Candida albicans, SLU-1 in 100 μL intravenously via the tail vein in a single dosage on day zero (0). However, other routes of administration, including intraperitoneal (ip) and subcutaneous (sc) routes may be administered. Amphotericin B will provide complete protection at 0.5 mg/kg qod (100% survival). Mortality data will be subjected to Kaplan-Meier survival analysis. All treatment groups may be considered statistically significant vs. saline at p values <0.05.
Treatment begins immediately thereafter with 400 μL oral gavage of either 0.5% dextrose, or derivative compound in 0.5% dextrose at various dosage levels (e.g., 10 mg/kg or 20 mg/kg) according to a prescribed dosing regimen (e.g. every other day for a total of eight times). Amphotericin B (Fungizone®) is administered intravenously at 0.5 mg/kg as a positive control every other day for a total of eight times. Twice-day monitoring (once daily on weekends and holidays) for mortality is performed. The animals treated with antiflngal derivative compound show improvement in mortality compared with the dextrose-treated controls, preferably statistically significant improvement (p-value of […]).

[1] = tested on: Candida albicans designated CA-1, Strain SLU-1; type: cell-based; settings: C. albicans SLU1; 24 hours at 37° C.; OD 595 nm below 0.1
Procedure: In each broth microdilution assay screening procedure, a colony of Candida albicans designated CA-1, Strain SLU-1 that was received from the laboratories of G. Matuschak and A. Lechner, St. Louis University Hospital, St. Louis, Mo., where the strain was maintained, was inoculated into a tube containing 5 mL Sabouraud Dextrose broth (2% dextrose, 1% neopeptone) and incubated at 37° C. with shaking. The overnight culture was diluted 1:50 into 5 ml of fresh broth and incubated for 3 hours at 37° C. to exponential phase growth. Organisms were pelleted by centrifugation in a Beckman J-6M centrifuge for 5 minutes at 3000 rpm (1500×g) and the pellets were resuspended in 5 mL phosphate buffered saline (PBS) and the optical density (OD) at 570 nm was determined. On the basis of the determination that one OD unit equals 3×10^7 colony forming units/mL (CFU/mL), yeast cells were diluted to 5×10^3 CFU/mL in Sabouraud Dextrose broth (SBD).
Derivatized peptide sequences based on Domain III of BPI to be screened which were originally constituted in Dulbecco's-PBS, were two-fold serially diluted in SDB starting from a concentration of 128 μg/mL. Equal volumes (100 μL) of yeast suspension as prepared above and derivatized peptide solution were added to wells of a 96-well sterile, flat bottom, non-pyrogenic tissue culture microtiter plate (Costar, Cambridge, Mass.) to reach a final volume of 200 μL/well. The plate was incubated on a shaker at 37° C. for 24 hours. All assays were performed in triplicate. Following the incubation period, plates were read in an ELISA plate reader at 595 nm wavelength to determine the minimum inhibitory concentration (MIC), i.e., the lowest concentration required to reduce the optical density at 595 nm to below 0.1 OD.

Q: What does the source list for `CC[C@@H](C)[C@@H](NC(=O)[C@@H](CC(C)C)NC(=O)[C@@H](Cc1c[nH]c2ccccc12)NC(=O)[C@@H](CCCCN)NC(=O)c1ccccc1O)C(=O)N[C@H](CCC(N)=O)C(=O)N[C@H](CC(C)C)C(=O)N[C@H](Cc1ccccc1)C(=O)N[C@H](Cc1c[nH]cn1)C(=O)N[C@H](CCCCN)C(=O)N[C@H](CCCCN)C(N)=O` [XMP.560]?
A: improvement in mortality compared with dextrose-treated controls (Candida albicans, SLU-1): did not exhibit statistically significant improvement; Broth Microdilution (MIC values in μg/mL C. albicans SLU1) [1]: 2 µg/mL
